Test results published in patent US8710182B2, “Rapid glycopeptide optimization via neoglycosylation” (Wisconsin Alumni Research Foundation, priority 2006, dated 2014).

System: VRE
Conditions: preliminary testing

## 2′-N-acyldecanoyl-glucosyl vancomycin neoglycoside [compound 5]
  activity against VRE: significant activity
